In this series the test system is skin. The series can be described thus: 21-Day Cumulative Irritation Test. Format: in vivo, human. Here is the method: Each of the formulations of Examples 1-11 was evaluated for its tendency to cause skin erythema using the 21-Day Cumulative Irritation Test. In this test, 0.2 g of undiluted deodorant is applied daily for 21 days (excluding weekends) to the same 2-cm square patch of skin, which is occluded between applications. Each weekday during the test period, trained personnel grade the portion of skin where the test material is applied for signs of irritation and reapply the test material. Subjects fulfill specific inclusion criteria including not pregnant or breast feeding, over 18 years old, and without medical conditions which would interfere with the test. The grading system used is as follows:
0.5 Papular or papulovesicular response and/or dryness without erythema […]
The total score is calculated by summing each individual's score on the 21 days of the test. […] The normalized score is the total score divided by the total number of readings for all subjects and multiplied by 21 (the number of readings) and by 10 (to normalize to 10 subjects). Normalized scores are analyzed using ANOVA (analysis of variance technique described in Duncan, A. J., “Analysis of Variance”, Quality Control and Industrial Statistics (Irwin Publishers, Homewood, Ill. 1986) including the effects of subject and product. Product comparisons are made at the 5% level based on Fisher's least significant differences. […]

As to `CCCCCCCCCCCCOS(=O)(=O)[O-].[Na+]` [Sodium Lauryl Sulfate], where the note is “0.2 g undiluted product applied daily for 21 days to same occluded 2-cm square skin patch, total score normalized to 21 readings and 10 subjects”, the “Normalized Score” value was found to be 431.8. For the same compound, the “Irritation Classification” value (classification of the normalized score, 21-Day Cumulative Irritation Test) is “Moderate”.
